The experiment concerns HCT116 cell line (colorectal cancer). Kind of experiment: Anti-proliferative activity assay (WST-8). The experiment is classed as cell-based. The following applies: Homo sapiens, HCT-116, 96 h; in vitro growth of HCT116, 4 days incubation, WST-8, concentration yielding 50% OD of control growth. Here is the method:
A single suspension of tumor cells was inoculated to the serially diluted 96-well microtestplate. Then the testplate was incubated in the 5% CO2 ambience at 37° C. for 4 days (2-3×10^3 cells/well). The degree of cell growth in a monolayer was measured by using WST-8 (Dojindo, Japan). IC50 values of the polycyclic compounds directed against tumor cells were calculated as the concentration of drug yielding 50% OD of the control growth.
The anti-tumor activity of polycyclic compounds of the formula [I] against in vitro growth of HCT116 cell line (colorectal cancer) is summarized in Table 1.
In general terms: Tetrazolium assays rely on reduction of a dye to a coloured formazan, in cell work by metabolically active cells.

Each structure is given as a SMILES string.

In turn, `CN(CCCN(C)CCNc1nc2ccccc2c2c1C(=O)c1cnccc1-2)CCNc1nc2ccccc2c2c1C(=O)c1cnccc1-2` [Example 5, 6-{2-[methyl-(3-{methyl-[2-(7-oxo-7H-5,9-diaza-benzo[c]fluoren-6-ylamino)-ethyl]-amino}-propyl)-amino]-ethylamino}-5,9-diaza-benzo[c]fluoren-7-one] registered a 50% inhibitory concentration (IC50) of 0.64 nM. To `CN(CCCN(C)CCNc1nc2cc(Cl)ccc2c2c1C(=O)c1cnccc1-2)CCNc1nc2cc(Cl)ccc2c2c1C(=O)c1cnccc1-2` [Example 6, 3-chloro-6-{2-[(3-{[2-(3-chloro-7-oxo-7H-5,9-diaza-benzo[c]fluoren-6-ylamino)-ethyl]-methyl-amino}-propyl)-methyl-amino]-ethylamino}-5,9-diaza-benzo[c]fluoren-7-one] belongs 0.02 nM; to `CN(CCCN(C)CCNc1nc2ccccc2c2c1C(=O)c1ccncc1-2)CCNc1nc2ccccc2c2c1C(=O)c1ccncc1-2` [Example 10, 6-{2-[methyl-(3-{methyl-[2-(7-oxo-7H-5,10-diaza-benzo[c]fluoren-6-ylamino)-ethyl]-amino}-propyl)-amino]-ethylamino}-5,10-diaza-benzo[c]fluoren-7-one], 0.3 nM; to `CN(CCCN(C)CCNc1nc2ccccc2c2c1C(=O)c1ccncc1-2)CCNc1nc2ccccc2c2c1C(=O)c1cnccc1-2` [Example 15, 6-{2-[methyl-(3-{methyl-[2-(7-oxo-7H-5,10-diaza-benzo[c]fluoren-6-ylamino)-ethyl]-amino}-propyl)-amino]-ethylamino}-5,9-diaza-benzo[c]fluoren-7-one], 0.13 nM. `COc1ccc2c3c(c(NCCN(C)CCCN(C)CCNc4nc5ccccc5c5c4C(=O)c4cnccc4-5)nc2c1)C(=O)c1cnccc1-3` [Example 16, 3-methoxy-6-{2-[methyl-(3-{methyl-[2-(7-oxo-7H-5,9-diaza-benzo[c]fluoren-6-ylamino)-ethyl]-amino}-propyl)-amino]-ethylamino}-5,9-diaza-benzo[c]fluoren-7-one] registered a half-inhibitory concentration (IC50) of 0.08 nM. To `CN(C)CCNc1nc2cc(O)ccc2c2c1C(=O)c1ccccc1-2` [Reference compound, 6-(2-dimethylamino-ethylamino)-3-hydroxy-7H-indeno[2,1-c]quinolin-7-one, reference compound] belongs 12 nM.

What is called IC50 is the midpoint of a concentration-inhibition curve.

(Values after patent publication US6946472B2, “Polycyclic compounds exhibiting anti-tumor activities” (Hoffman-La Roche Inc., priority 2002, dated 2005).)
